# Laboratory results published in ChEMBL document CHEMBL5365457, “Selective HDAC3 Inhibitors with Potent In Vivo Antitumor Efficacy against Triple-Negative Breast Cancer” (J Med Chem, 2023).
# What was measured:
# [1] = Selectivity ratio of IC50 for cytotoxicity against human HCEC cells assessed as inhibition of cell growth to IC50 for cytotoxicity against human MDA-MB-231 cells assessed as inhibition of cell growth; assay type: toxicity, cell-based; settings: HCEC cells versus MDA-MB-231 cells, read-out: Ratio IC50
# [2] = Selectivity ratio of IC50 for cytotoxicity against human HEK293 cells assessed as inhibition of cell growth to IC50 for cytotoxicity against human MCF7 cells assessed as inhibition of cell growth; assay type: toxicity, cell-based; settings: HEK293 cells versus MCF7 cells, read-out: Ratio IC50
# [3] = Selectivity ratio of IC50 for cytotoxicity against human MCF-10A cells assessed as inhibition of cell growth to IC50 for cytotoxicity against human MDA-MB-453 cells assessed as inhibition of cell growth; assay type: toxicity, cell-based; settings: MCF-10A cells versus MDA-MB-453 cells, read-out: Ratio IC50
# [4] = Selectivity ratio of IC50 for cytotoxicity against human MCF-10A cells assessed as inhibition of cell growth to IC50 for cytotoxicity against human MDA-MB-231 cells assessed as inhibition of cell growth; assay type: toxicity, cell-based; settings: MCF-10A cells versus MDA-MB-231 cells, read-out: Ratio IC50
# [5] = Selectivity ratio of IC50 for cytotoxicity against human HCEC cells assessed as inhibition of cell growth to IC50 for cytotoxicity against human MDA-MB-453 cells assessed as inhibition of cell growth; assay type: toxicity, cell-based; settings: HCEC cells versus MDA-MB-453 cells, read-out: Ratio IC50
# [6] = Cytotoxicity against human MCF-10A cells assessed as inhibition of cell growth incubated for 72 hrs by MTT assay; assay type: toxicity, cell-based
# [7] = Selectivity ratio of IC50 for cytotoxicity against human HCEC cells assessed as inhibition of cell growth to IC50 for cytotoxicity against mouse 4T1 cells assessed as inhibition of cell growth; assay type: toxicity, cell-based; settings: HCEC cells versus 4T1 cells, read-out: Ratio IC50
# [8] = system: MDA-MB-231; experiment: Cytotoxicity against human MDA-MB-231 cells assessed as inhibition of cell growth incubated for 72 hrs by MTT assay; assay type: functional, cell-based; settings: MDA-MB-231, 72 h
# [9] = Cytotoxicity against human HCEC cells assessed as inhibition of cell growth incubated for 72 hrs by MTT assay; assay type: toxicity, cell-based; settings: for IC50 at 72 h: human, HCEC cells
# [10] = system: MCF7; experiment: Cytotoxicity against human MCF7 cells assessed as inhibition of cell growth incubated for 72 hrs by MTT assay; assay type: functional, cell-based; settings: MCF7, 72 h
# [11] = target: Histone deacetylase 1 (Homo sapiens, UniProt Q13547); experiment: Inhibition of full length N-terminal human recombinant HDAC1 at 1 uM incubated for 30 mins by fluorescence based microplate assay relative to control
# Chain of Histone deacetylase 1 (Q13547 whole entry): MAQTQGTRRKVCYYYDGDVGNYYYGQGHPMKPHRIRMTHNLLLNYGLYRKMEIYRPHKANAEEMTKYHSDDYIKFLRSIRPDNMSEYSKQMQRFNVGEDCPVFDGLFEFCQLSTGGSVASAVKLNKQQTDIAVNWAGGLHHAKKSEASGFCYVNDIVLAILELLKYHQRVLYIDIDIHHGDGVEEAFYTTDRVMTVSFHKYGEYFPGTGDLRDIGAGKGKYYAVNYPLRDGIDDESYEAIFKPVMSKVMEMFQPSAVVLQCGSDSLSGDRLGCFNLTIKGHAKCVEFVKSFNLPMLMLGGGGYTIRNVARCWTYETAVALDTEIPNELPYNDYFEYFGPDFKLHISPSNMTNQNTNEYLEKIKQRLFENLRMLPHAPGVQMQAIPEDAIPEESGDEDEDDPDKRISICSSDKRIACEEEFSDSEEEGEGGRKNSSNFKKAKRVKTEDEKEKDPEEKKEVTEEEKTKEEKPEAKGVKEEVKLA
# [12] = target: Histone deacetylase 2 (Homo sapiens, UniProt Q92769); experiment: Inhibition of human recombinant HDAC2 at 1 uM incubated for 30 mins by fluorescence based microplate assay relative to control
# Chain of Histone deacetylase 2 (Q92769 whole entry): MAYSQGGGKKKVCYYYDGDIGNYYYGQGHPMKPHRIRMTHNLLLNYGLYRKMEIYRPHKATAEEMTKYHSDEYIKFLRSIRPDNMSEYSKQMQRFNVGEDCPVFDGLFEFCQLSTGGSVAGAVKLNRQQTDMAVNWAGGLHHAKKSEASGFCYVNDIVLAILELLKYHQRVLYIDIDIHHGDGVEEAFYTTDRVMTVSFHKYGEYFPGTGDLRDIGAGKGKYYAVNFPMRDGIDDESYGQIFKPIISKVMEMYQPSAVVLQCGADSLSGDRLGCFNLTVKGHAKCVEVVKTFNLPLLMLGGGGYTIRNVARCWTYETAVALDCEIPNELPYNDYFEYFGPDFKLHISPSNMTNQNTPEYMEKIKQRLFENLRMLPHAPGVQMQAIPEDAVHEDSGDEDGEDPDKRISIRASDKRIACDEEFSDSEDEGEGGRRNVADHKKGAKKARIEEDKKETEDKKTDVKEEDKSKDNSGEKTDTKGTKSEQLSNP
# [13] = target: Histone deacetylase 3 (Homo sapiens, UniProt O15379); experiment: Inhibition of human recombinant HDAC3 at 1 uM measured after 30 mins by fluorescence based microplate assay relative to control
# Chain of Histone deacetylase 3 (O15379 whole entry): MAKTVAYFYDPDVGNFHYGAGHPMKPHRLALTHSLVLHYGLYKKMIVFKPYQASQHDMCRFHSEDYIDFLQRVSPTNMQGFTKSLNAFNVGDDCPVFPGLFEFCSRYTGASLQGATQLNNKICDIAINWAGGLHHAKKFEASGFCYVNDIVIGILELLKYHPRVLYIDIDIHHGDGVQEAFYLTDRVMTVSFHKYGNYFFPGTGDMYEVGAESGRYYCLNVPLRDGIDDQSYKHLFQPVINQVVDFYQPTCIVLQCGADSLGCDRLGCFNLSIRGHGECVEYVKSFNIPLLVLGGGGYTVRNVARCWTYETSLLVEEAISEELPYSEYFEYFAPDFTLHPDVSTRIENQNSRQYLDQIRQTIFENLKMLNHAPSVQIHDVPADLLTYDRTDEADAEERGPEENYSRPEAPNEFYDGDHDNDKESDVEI
# [14] = Selectivity ratio of IC50 for cytotoxicity against human MCF-10A cells assessed as inhibition of cell growth to IC50 for cytotoxicity against human MCF7 cells assessed as inhibition of cell growth; assay type: toxicity, cell-based; settings: MCF-10A cells versus MCF7 cells, read-out: Ratio IC50
# [15] = system: MDA-MB-453; experiment: Cytotoxicity against human MDA-MB-453 cells assessed as inhibition of cell growth incubated for 72 hrs by MTT assay; assay type: functional, cell-based; settings: MDA-MB-453, 72 h
# [16] = Selectivity ratio of IC50 for cytotoxicity against human HEK293 cells assessed as inhibition of cell growth to IC50 for cytotoxicity against mouse 4T1 cells assessed as inhibition of cell growth; assay type: toxicity, cell-based; settings: HEK293 cells versus 4T1 cells, read-out: Ratio IC50
# [17] = Selectivity ratio of IC50 for cytotoxicity against human HEK293 cells assessed as inhibition of cell growth to IC50 for cytotoxicity against human MDA-MB-231 cells assessed as inhibition of cell growth; assay type: toxicity, cell-based; settings: HEK293 cells versus MDA-MB-231 cells, read-out: Ratio IC50
# [18] = Cytotoxicity against human HEK293 cells assessed as inhibition of cell growth incubated for 72 hrs by MTT assay; assay type: toxicity, cell-based
# [19] = Selectivity ratio of IC50 for cytotoxicity against human HEK293 cells assessed as inhibition of cell growth to IC50 for cytotoxicity against human MDA-MB-453 cells assessed as inhibition of cell growth; assay type: toxicity, cell-based; settings: HEK293 cells versus MDA-MB-453 cells, read-out: Ratio IC50
# [20] = Selectivity ratio of IC50 for cytotoxicity against human HCEC cells assessed as inhibition of cell growth to IC50 for cytotoxicity against human MCF7 cells assessed as inhibition of cell growth; assay type: toxicity, cell-based; settings: HCEC cells versus MCF7 cells, read-out: Ratio IC50
# [21] = system: 4T1; experiment: Cytotoxicity against mouse 4T1 cells assessed as inhibition of cell growth incubated for 72 hrs by MTT assay; assay type: functional, cell-based; settings: 4T1, 72 h
# [22] = Selectivity ratio of IC50 for cytotoxicity against human MCF-10A cells assessed as inhibition of cell growth to IC50 for cytotoxicity against […] cells assessed as inhibition of cell growth; assay type: toxicity, cell-based; settings: MCF-10A cells versus 4T1 cells, read-out: Ratio IC50
# [23] = target: T1, Histone deacetylase 8 (Homo sapiens, UniProt Q9BY41); experiment: Inhibition of HDAC8 (unknown origin)
# T1 sequence (Q9BY41 whole entry): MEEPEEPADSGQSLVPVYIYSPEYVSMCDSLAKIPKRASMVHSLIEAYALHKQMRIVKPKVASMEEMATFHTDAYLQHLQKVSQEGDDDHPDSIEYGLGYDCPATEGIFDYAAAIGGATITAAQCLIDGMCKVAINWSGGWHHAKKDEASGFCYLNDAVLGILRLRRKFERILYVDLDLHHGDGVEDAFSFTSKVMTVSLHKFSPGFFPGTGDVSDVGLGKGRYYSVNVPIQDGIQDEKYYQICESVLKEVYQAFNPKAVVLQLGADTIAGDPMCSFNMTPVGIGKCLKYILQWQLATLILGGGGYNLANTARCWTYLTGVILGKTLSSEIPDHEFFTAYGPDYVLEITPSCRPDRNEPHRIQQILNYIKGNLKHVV
# [24] = target: T2, Protein deacetylase HDAC6 (Homo sapiens, UniProt Q9UBN7); experiment: Inhibition of HDAC6 (unknown origin)
# T2 sequence (Q9UBN7 whole entry): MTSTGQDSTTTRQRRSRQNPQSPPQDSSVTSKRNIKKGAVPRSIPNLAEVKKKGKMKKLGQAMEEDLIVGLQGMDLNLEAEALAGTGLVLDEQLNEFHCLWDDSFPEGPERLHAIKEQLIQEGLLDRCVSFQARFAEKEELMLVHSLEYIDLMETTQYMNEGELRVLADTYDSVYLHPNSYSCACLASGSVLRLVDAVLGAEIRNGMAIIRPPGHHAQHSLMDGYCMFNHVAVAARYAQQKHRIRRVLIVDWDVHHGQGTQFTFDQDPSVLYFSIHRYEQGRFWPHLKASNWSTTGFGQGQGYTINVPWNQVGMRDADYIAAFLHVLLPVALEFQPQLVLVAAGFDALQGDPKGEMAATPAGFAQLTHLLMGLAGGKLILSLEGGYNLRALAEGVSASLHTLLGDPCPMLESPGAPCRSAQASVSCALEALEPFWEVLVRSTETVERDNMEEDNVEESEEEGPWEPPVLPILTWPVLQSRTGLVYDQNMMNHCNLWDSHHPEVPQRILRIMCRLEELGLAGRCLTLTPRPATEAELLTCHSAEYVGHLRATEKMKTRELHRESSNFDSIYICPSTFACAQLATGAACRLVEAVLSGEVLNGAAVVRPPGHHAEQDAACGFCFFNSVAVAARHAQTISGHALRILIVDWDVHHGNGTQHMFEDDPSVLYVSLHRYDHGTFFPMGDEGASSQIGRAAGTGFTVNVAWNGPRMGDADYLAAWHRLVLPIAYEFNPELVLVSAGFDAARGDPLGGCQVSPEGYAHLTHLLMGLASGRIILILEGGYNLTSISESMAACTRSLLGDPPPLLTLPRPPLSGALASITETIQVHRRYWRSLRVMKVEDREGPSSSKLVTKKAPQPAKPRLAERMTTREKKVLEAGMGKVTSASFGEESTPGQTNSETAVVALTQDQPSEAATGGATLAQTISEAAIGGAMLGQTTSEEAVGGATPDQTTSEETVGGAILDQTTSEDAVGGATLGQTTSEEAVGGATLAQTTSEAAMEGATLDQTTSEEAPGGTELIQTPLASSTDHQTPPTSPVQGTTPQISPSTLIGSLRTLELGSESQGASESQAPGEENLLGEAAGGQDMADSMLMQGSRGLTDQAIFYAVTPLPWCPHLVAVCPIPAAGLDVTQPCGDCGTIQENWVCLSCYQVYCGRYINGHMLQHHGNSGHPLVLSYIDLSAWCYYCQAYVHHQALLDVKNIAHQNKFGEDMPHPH
# [25] = target: T1, Histone deacetylase 8; experiment: Inhibition of human recombinant HDAC8 incubated for 10 mins by fluorescence based microplate analysis
# [26] = target: T2, Protein deacetylase HDAC6; experiment: Inhibition of human recombinant HDAC6 incubated for 15 mins by fluorescence based microplate analysis
inhibition [13],SMILES,selectivity ratio [1],selectivity ratio [2],selectivity ratio [3],selectivity ratio [4],selectivity ratio [5],IC50 at 72 h [6],selectivity ratio [7],IC50 [8],IC50 at 72 h [9],IC50 [10],selectivity ratio [14],IC50 [15],selectivity ratio [16],selectivity ratio [17],IC50 at 72 h [18],selectivity ratio [19],selectivity ratio [20],IC50 [21],selectivity ratio [22],further results
> 70%,CCCNNC(=O)c1cnc(NC(=O)c2ccc3[nH]ccc3c2)cn1,> 40,> 40,> 40,> 40,> 40,125 µM,> 40,920 nM,180 µM,2030 nM,> 40,2190 nM,> 40,> 40,138 µM,> 40,> 40,710 nM,> 40,inhibition [11]: < 17%; inhibition [12]: < 17%
> 70%,CCCNNC(=O)c1cnc(NC(=O)c2ccc3ncccc3c2)cn1,> 40,> 40,> 40,> 40,> 40,140 µM,> 40,870 nM,131 µM,1010 nM,> 40,1820 nM,> 40,> 40,126 µM,> 40,> 40,590 nM,> 40,inhibition [11]: < 17%; inhibition [12]: < 17%
> 70%,CCCNNC(=O)c1cnc(Nc2ccccc2)cn1,> 40,> 40,> 40,> 40,> 40,205 µM,> 40,1880 nM,196 µM,3280 nM,> 40,5440 nM,> 40,> 40,218 µM,> 40,> 40,2760 nM,> 40,
,Nc1ccccc1NC(=O)c1cnccn1,,,,,,,,,,,,,,,,,,,,IC50 [23]: 28.5 µM; IC50 [24]: 34.2 µM
> 70%,CCCNNC(=O)c1cnc(NCc2ccccc2)cn1,> 40,> 40,> 40,> 40,> 40,114 µM,> 40,1230 nM,140 µM,1120 nM,> 40,2760 nM,> 40,> 40,110 µM,> 40,> 40,1150 nM,> 40,inhibition [11]: < 17%; inhibition [12]: < 17%
,Nc1ccccc1NC(=O)c1cnc(NCc2ccccc2)cn1,,,,,,,,,,,,,,,,,,,,IC50 [25]: 15.6 µM; IC50 [26]: 37.2 µM
> 70%,CCCCNNC(=O)c1cnc(NCc2ccc(OC)cc2)cn1,> 40,> 40,> 40,> 40,> 40,109 µM,> 40,970 nM,,2590 nM,> 40,2680 nM,> 40,> 40,107 µM,> 40,> 40,930 nM,> 40,IC50 ([9]; hcec): 1.37 mM
